Results published in PubChem BioAssay (NCI).
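48-hour exposure; five concentrations; linearly interpolated endpoints. Here, GI50 denotes the concentration required for 50% inhibition of growth. TGI: concentration producing complete growth inhibition.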

Key:
Assay in all cases: DTP human tumour cell line panel, 48 h
[1] = system: OVCAR-4 ovarian
[2] = system: RPMI-8226 leukemia
[3] = system: LOX IMVI melanoma
[4] = system: SNB-75 CNS
[5] = system: HL-60(TB) leukemia
[6] = system: OVCAR-8 ovarian
[7] = system: SK-MEL-2 melanoma
[8] = system: NCI-H522 lung
[9] = system: MDA-MB-231 breast
[10] = system: UACC-62 melanoma
[11] = system: SN12C renal
[12] = system: HCT-15 colon
[13] = system: SF-295 CNS
[14] = system: 786-0 renal
[15] = system: COLO 205 colon
[16] = system: CAKI-1 renal
[17] = system: HOP-62 NSCLC
[18] = system: HCT-116 colon
[19] = system: SK-MEL-5 melanoma
[20] = system: SK-MEL-28 melanoma
[21] = system: SNB-19 CNS
[22] = system: UO-31 renal
[23] = system: SR leukemia
[24] = system: SW-620 colon
[25] = system: BT-549 breast
[26] = system: UACC-257 melanoma
[27] = system: TK-10 renal
[28] = system: KM12 colon
[29] = system: MOLT-4 leukemia
[30] = system: HS 578T breast
[31] = system: EKVX NSCLC
[32] = system: HOP-92 NSCLC
[33] = system: SK-OV-3 ovarian
[34] = system: A498 renal
[35] = system: OVCAR-3 ovarian
[36] = system: MCF7 breast
[37] = system: MALME-3M melanoma
[38] = system: ACHN renal
[39] = system: NCI-H226 lung
[40] = system: K-562 leukemia
[41] = system: CCRF-CEM leukemia
[42] = system: NCI-H23 lung
[43] = system: SF-539 CNS
[44] = system: T-47D breast
[45] = system: PC-3 prostate
[46] = system: A549 NSCLC
[47] = system: IGROV1 ovarian
[48] = system: NCI/ADR-RES ovarian
[49] = system: OVCAR-5 ovarian
[50] = system: HT29 colon
[51] = system: SF-268 CNS
[52] = system: U251 CNS
[53] = system: HCC-2998 colon
[54] = system: NCI-H460 lung
[55] = system: RXF 393 renal
[56] = system: M14 melanoma
[57] = system: DU-145 prostate

SMILES: COc1ccc2c(c1)/C(=C/c1cc(OC)c(OC)c(OC)c1)C(=O)N2C
- GI50 [1]: 4.66 µM
- TGI [1]: > 77.5 µM
- GI50 [2]: 1.59 µM
- TGI [2]: 4.43 µM
- GI50 [3]: 2.32 µM
- TGI [3]: 11.8 µM
- GI50 [4]: 2.29 µM
- TGI [4]: > 21.4 µM
- GI50 [5]: 1.46 µM
- TGI [5]: 5.28 µM
- GI50 [6]: 4.21 µM
- TGI [6]: > 74.8 µM
- GI50 [7]: 3.29 µM
- TGI [7]: 7.41 µM
- GI50 [8]: 2.24 µM
- TGI [8]: 6.39 µM
- GI50 [9]: 2.81 µM
- TGI [9]: > 27.1 µM
- GI50 [10]: 2.37 µM
- TGI [10]: > 24 µM
- GI50 [11]: 3.44 µM
- TGI [11]: > 44.5 µM
- GI50 [12]: 2.12 µM
- TGI [12]: > 35.6 µM
- GI50 [13]: 2.78 µM
- TGI [13]: > 100 µM
- GI50 [14]: 3.82 µM
- TGI [14]: 23.7 µM
- GI50 [15]: 1.83 µM
- TGI [15]: 3.68 µM
- GI50 [16]: 2.41 µM
- TGI [16]: > 27.4 µM
- GI50 [17]: 4.63 µM
- TGI [17]: 97.6 µM
- GI50 [18]: 2.56 µM
- TGI [18]: 13.3 µM
- GI50 [19]: 2.76 µM
- TGI [19]: 12.6 µM
- GI50 [20]: 3.58 µM
- TGI [20]: 22.5 µM
- GI50 [21]: 3.19 µM
- TGI [21]: > 27.7 µM
- GI50 [22]: 3.91 µM
- TGI [22]: > 55.7 µM
- GI50 [23]: 0.634 µM
- TGI [23]: 3.28 µM
- GI50 [24]: 1.59 µM
- TGI [24]: 8.66 µM
- GI50 [25]: 2.84 µM
- TGI [25]: > 30.4 µM
- GI50 [26]: 7.88 µM
- TGI [26]: > 80.4 µM
- GI50 [27]: 3.56 µM
- TGI [27]: > 31.6 µM
- GI50 [28]: 1.76 µM
- TGI [28]: 4.95 µM
- GI50 [29]: 1.89 µM
- TGI [29]: 7.56 µM
- GI50 [30]: 1.43 µM
- TGI [30]: 4.61 µM
- GI50 [31]: 5.1 µM
- TGI [31]: > 100 µM
- GI50 [32]: 3.01 µM
- TGI [32]: > 100 µM
- GI50 [33]: 3.2 µM
- TGI [33]: 12.5 µM
- GI50 [34]: 2.5 µM
- TGI [34]: 5.92 µM
- GI50 [35]: 2.03 µM
- TGI [35]: 5.95 µM
- GI50 [36]: 1.83 µM
- TGI [36]: > 25.8 µM
- GI50 [37]: 2.87 µM
- TGI [37]: > 29.2 µM
- GI50 [38]: 3.6 µM
- TGI [38]: > 39.5 µM
- GI50 [39]: 4.85 µM
- TGI [39]: > 100 µM
- GI50 [40]: 1.12 µM
- TGI [40]: > 46.5 µM
- GI50 [41]: 2.21 µM
- TGI [41]: 7.04 µM
- GI50 [42]: 4.42 µM
- TGI [42]: > 100 µM
- GI50 [43]: 2.21 µM
- TGI [43]: 5.92 µM
- GI50 [44]: 2.59 µM
- TGI [44]: 6.45 µM
- GI50 [45]: 2.92 µM
- TGI [45]: > 100 µM
- GI50 [46]: 3.64 µM
- TGI [46]: > 67.1 µM
- GI50 [47]: 1.9 µM
- TGI [47]: 5.31 µM
- GI50 [48]: 3.37 µM
- TGI [48]: > 39.7 µM
- GI50 [49]: 5.49 µM
- TGI [49]: > 100 µM
- GI50 [50]: 2.9 µM
- TGI [50]: > 88.1 µM
- GI50 [51]: 2.39 µM
- TGI [51]: 6.72 µM
- GI50 [52]: 1.94 µM
- TGI [52]: 4.83 µM
- GI50 [53]: 9.39 µM
- TGI [53]: > 56.1 µM
- GI50 [54]: 2.46 µM
- TGI [54]: 7.02 µM

SMILES: CCSc1nnc(-c2ccc3ccccc3c2O)n1-c1ccc(Cl)cc1
- GI50 [1]: 5.71 µM
- TGI [1]: > 100 µM
- GI50 [2]: 4.83 µM
- TGI [2]: > 100 µM
- GI50 [3]: 5.52 µM
- TGI [3]: > 100 µM
- GI50 [4]: 65.1 µM
- TGI [4]: > 100 µM
- GI50 [5]: 7.16 µM
- TGI [5]: > 100 µM
- GI50 [6]: 5.5 µM
- TGI [6]: > 100 µM
- GI50 [7]: > 100 µM
- TGI [7]: > 100 µM
- GI50 [8]: 5.15 µM
- TGI [8]: > 100 µM
- GI50 [9]: > 100 µM
- TGI [9]: > 100 µM
- GI50 [55]: 42.3 µM
- TGI [55]: > 100 µM
- GI50 [10]: 4.6 µM
- TGI [10]: > 100 µM
- GI50 [11]: > 100 µM
- TGI [11]: > 100 µM
- GI50 [12]: 3.13 µM
- TGI [12]: > 100 µM
- GI50 [13]: 4.24 µM
- TGI [13]: > 100 µM
- GI50 [14]: 60.3 µM
- TGI [14]: > 100 µM
- GI50 [15]: 47.4 µM
- TGI [15]: > 100 µM
- GI50 [16]: 6.85 µM
- TGI [16]: > 100 µM
- GI50 [17]: 22.1 µM
- TGI [17]: > 100 µM
- GI50 [18]: 4 µM
- TGI [18]: > 100 µM
- GI50 [56]: 8.11 µM
- TGI [56]: > 100 µM
- GI50 [19]: 6.01 µM
- TGI [19]: > 100 µM
- GI50 [20]: > 100 µM
- TGI [20]: > 100 µM
- GI50 [21]: 5.84 µM
- TGI [21]: > 100 µM
- GI50 [22]: 3.31 µM
- TGI [22]: > 100 µM
- GI50 [23]: 3.86 µM
- TGI [23]: > 100 µM
- GI50 [24]: 4.28 µM
- TGI [24]: > 100 µM
- GI50 [25]: > 100 µM
- TGI [25]: > 100 µM
- GI50 [26]: > 100 µM
- TGI [26]: > 100 µM
- GI50 [28]: > 100 µM
- TGI [28]: > 100 µM
- GI50 [30]: 85.4 µM
- TGI [30]: > 100 µM
- GI50 [32]: 9.23 µM
- TGI [32]: > 100 µM
- GI50 [33]: 69.5 µM
- TGI [33]: > 100 µM
- GI50 [34]: > 100 µM
- TGI [34]: > 100 µM
- GI50 [35]: 29.4 µM
- TGI [35]: > 100 µM
- GI50 [36]: 6.66 µM
- TGI [36]: > 100 µM
- GI50 [37]: > 100 µM
- TGI [37]: > 100 µM
- GI50 [57]: 13.1 µM
- TGI [57]: > 100 µM
- GI50 [38]: 4.99 µM
- TGI [38]: > 100 µM
- GI50 [39]: 7.46 µM
- TGI [39]: > 100 µM
- GI50 [40]: 4.04 µM
- TGI [40]: > 100 µM
- GI50 [41]: 3.58 µM
- TGI [41]: > 100 µM
- GI50 [42]: > 100 µM
- TGI [42]: > 100 µM
- GI50 [43]: > 100 µM
- TGI [43]: > 100 µM
- GI50 [44]: 8.96 µM
- TGI [44]: > 100 µM
- GI50 [45]: 50.1 µM
- TGI [45]: > 100 µM
- GI50 [46]: 4.51 µM
- TGI [46]: > 100 µM
- GI50 [47]: 4.42 µM
- TGI [47]: > 100 µM
- GI50 [48]: 4.45 µM
- TGI [48]: > 100 µM
- GI50 [49]: > 100 µM
- TGI [49]: > 100 µM
- GI50 [50]: 16 µM
- TGI [50]: > 100 µM
- GI50 [51]: 26.1 µM
- TGI [51]: > 100 µM
- GI50 [52]: 4.05 µM
- TGI [52]: > 100 µM
- GI50 [53]: > 100 µM
- TGI [53]: > 100 µM
- GI50 [54]: 3.27 µM
- TGI [54]: > 100 µM
